Entries after “also recorded” stand apart in the source; their conditions may differ.
Tests used:
[1] = biological target: T1, Y1 in human breast carcinoma (Homo sapiens, UniProt P25929); experiment: NPY receptor autoradiography, displacement of 125I-PYY in breast carcinoma sections; type: binding; conditions: FIG. 2; increasing concentrations; Y1-expressing breast tumor
T1 construct: Twenty-μm thick cryostat sections of the tissue samples were processed for NPY receptor autoradiography; from tissue; host or cells: human breast carcinoma cryostat sections
T1 sequence (P25929 1-384): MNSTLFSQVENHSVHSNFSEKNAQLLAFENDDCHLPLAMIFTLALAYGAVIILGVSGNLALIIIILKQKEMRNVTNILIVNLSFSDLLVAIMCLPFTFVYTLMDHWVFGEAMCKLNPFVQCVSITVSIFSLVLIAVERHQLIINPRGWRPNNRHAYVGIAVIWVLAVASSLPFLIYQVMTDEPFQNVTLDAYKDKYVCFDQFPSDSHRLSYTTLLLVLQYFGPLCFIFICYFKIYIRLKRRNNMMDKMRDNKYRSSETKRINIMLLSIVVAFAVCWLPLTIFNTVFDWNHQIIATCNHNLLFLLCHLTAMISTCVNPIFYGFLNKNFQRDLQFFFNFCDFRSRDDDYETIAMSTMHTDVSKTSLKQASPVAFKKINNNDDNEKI
Protocol: For autoradiography, tissue sections were mounted on precleaned microscope slides and stored at −20° C. for at least 3 days to improve adhesion of the tissue to the slide.
(§1) On completion of the incubation, the slides were washed four times for 5 min each in ice-cold preincubation solution, pH 7.4. They were rinsed twice in ice-cold distilled water, and then dried under a stream of cold air at 4° C., apposed to ^3H-Hyperfilms and exposed for 7 days in x-ray cassettes.
(§2) Tissue standards for iodinated compounds (Amersham) were used for this purpose.

[2] = biological target: T2, Y2 receptors in normal breast (Homo sapiens, UniProt P49146); experiment: NPY receptor autoradiography, displacement of 125I-PYY in adjacent normal breast sections; type: binding; conditions: FIG. 1; surrounding normal breast expressing predominantly Y2
T2 construct: Twenty-μm thick cryostat sections of the tissue samples were processed for NPY receptor autoradiography; from tissue; host or cells: human normal breast tissue adjacent to carcinoma, cryostat sections
T2 sequence (P49146 1-381): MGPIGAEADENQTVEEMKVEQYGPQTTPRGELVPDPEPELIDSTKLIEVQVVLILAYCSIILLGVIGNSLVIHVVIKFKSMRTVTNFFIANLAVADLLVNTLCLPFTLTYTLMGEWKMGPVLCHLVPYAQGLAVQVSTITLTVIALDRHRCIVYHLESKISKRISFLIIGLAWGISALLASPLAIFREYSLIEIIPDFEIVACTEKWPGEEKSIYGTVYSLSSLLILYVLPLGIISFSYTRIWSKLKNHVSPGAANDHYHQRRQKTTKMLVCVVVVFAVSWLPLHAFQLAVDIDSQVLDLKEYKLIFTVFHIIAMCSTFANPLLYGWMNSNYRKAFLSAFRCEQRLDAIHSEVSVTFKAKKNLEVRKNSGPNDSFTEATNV
Protocol: For autoradiography, tissue sections were mounted on precleaned microscope slides and stored at −20° C. for at least 3 days to improve adhesion of the tissue to the slide. […] The slides were incubated at room temperature with the radioligand for 120 min.
In selected cases, displacements with a single concentration (25 nM) of each of the above mentioned peptides were performed.
as §1, §2

[3] = biological target: T3, NPY receptors in breast carcinoma (Homo sapiens, UniProt P25929); experiment: NPY receptor autoradiography, total binding of radioligands to breast carcinoma
T3 construct: Twenty-μm thick cryostat sections of the tissue samples were processed for NPY receptor autoradiography; from tissue; host or cells: human breast carcinoma cryostat sections
T3 sequence (P25929 1-384): T1 sequence (P25929 1-384)
Protocol: (§3) Twenty-μm thick cryostat sections of the tissue samples were processed for NPY receptor autoradiography as described in detail previously for other peptide receptors (Reubi, J. C. et al. Cancer Res. 50, 5969-5977 (1990)). One radioligand used was ^125I-PYY (2'000 Ci/mmol; […], Switzerland), known to specifically label NPY receptors. For autoradiography, tissue sections were mounted on precleaned microscope slides and stored at -20° C. for at least 3 days to improve adhesion of the tissue to the slide. Sections were then processed according to Dumont et al. (J. Neurosci. 13, 73-86 (1993)). They were first preincubated in 119 mM NaCl, 3.2 mM KCl, 1.19 mM KH2PO4, 1.19 mm MgSO4, 25 mM NaHCO3, 2.53 mM CaCl2×2H2O and 10 mM D-glucose, pH 7.4 (preincubation solution), for 60 min at room temperature. The slides were then incubated in a solution containing the same medium as the preincubation solution in which the following compounds were added: 0.1% bovine serum albumin, 0.05% bacitracin, pH 7.4, and the radioligand, at approximate concentration of 22 pM ^125I-PYY. The slides were incubated at room temperature with the radioligand for 120 min. On completion of the incubation, the slides were washed four times for 5 min each in ice-cold preincubation solution, pH 7.4. They were rinsed twice in ice-cold distilled water, and then dried under a stream of cold air at 4° C., apposed to ^3H-Hyperfilms and exposed for 7 days in x-ray cassettes. […] Int 21, 45-67 (1992); […] Neurosci. 76, 215-224 (1997)). Identical experimental conditions as mentioned for ^125I-PYY were used. The autoradiograms were quantified using a computer-assisted image processing system, as described previously (Reubi et al. (1990), supra; […] & Reubi Can. Res. 59,1152-1159 (1999)). Tissue standards for iodinated compounds (Amersham) were used for this purpose. A tissue was defined as receptor-positive when the optical density measured in the total binding section was at least twice that of the nonspecific binding section (in the presence of 10^-7 mol/L PYY).

[4] = test system: NPY receptors in normal breast; experiment: NPY receptor autoradiography, total binding of radioligands to adjacent normal breast; parameters: species or system human; conditions: FIG. 1
Protocol: as §3

| Compound | labeling of tumor by radioligand (total binding) ([3]; FIG. 1) | labeling of breast by radioligand (total binding) [4] | displacement of 125I-PYY, competition curves [1] | other results |
| --- | --- | --- | --- | --- |
| [Leu^31, Pro^34]-PYY | – | – | completely displace the radiotracer with high affinity; also recorded: high affinity displacement | affinity in surrounding breast (rank order of potency) [2]: low affinity |
| PYY(13-36) | – | – | not | – |
| PYY: member of the NPY family of 36 amino acid long peptides [peptide YY] | – | – | high affinity displacement | – |
| [Leu^31, Pro^34]-NPY | – | – | – | affinity in surrounding breast (rank order of potency) [2]: low affinity |
| ^125I-[Leu^31, Pro^34]-PYY | strongly labeled | not or only very weakly visible | – | labeling of tumor by radioligand (total binding) ([3]; FIG. 1, Pro^34]-PYY): labeled |
| C[C@H](N)C(=O)NCC(=O)N[C@H]1CSSC[C@@H](C(=O)O)NC(=O)[C@H](CO)NC(=O)[C@H]([C@@H](C)O)NC(=O)[C@H](Cc2ccccc2)NC(=O)[C@H]([C@@H](C)O)NC(=O)[C@H](CCCCN)NC(=O)[C@H](Cc2c[nH]c3ccccc23)NC(=O)[C@H](Cc2ccccc2)NC(=O)[C@H](Cc2ccccc2)NC(=O)[C@H](CC(N)=O)NC(=O)[C@H](CCCCN)NC1=O [Somatostatin] | – | – | inactive | – |

The next lines start with results.

| labeling of tumor by radioligand (total binding) ([3]; FIG. 1) | labeling of breast by radioligand (total binding) [4] | Compound | displacement of 125I-PYY, competition curves [1] | other results |
| --- | --- | --- | --- | --- |
| not seen | labeled | ^125I-PYY(3-36) | – | – |
| strong labeling | strong labeling | ^125I-PYY | – | – |
